Measurements: ChEMBL document CHEMBL1201862, “PubChem BioAssay data set” (2004)
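A five-concentration, 48-hour dose response in 96-well plates underlies each endpoint, interpolated linearly between surrounding concentrations. Here, GI50 denotes the concentration required for 50% inhibition of growth.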 Activity calls are given as the source filed them. Cut-off read from the data, not from the text of the source: active = GI50 up to about 1.1 µM and inactive = higher. Where a SMILES comes first, the peptide text is derived from it. The star is where a group is joined. Fmoc = O=C(OCC1c2ccccc2-c2ccccc21)*; OtBu = CC(C)(C)O*

Key:
Experiment in all cases: inhibition of tumour cell growth, NCI panel, 48 h
HCT-116 = system: HCT-116
SW-620 = system: SW-620
TK-10 = system: TK-10
MDA-MB-435 = system: MDA-MB-435
OVCAR-8 = system: OVCAR-8
SNB-19 = system: SNB-19
DU-145 = system: DU-145
K562 = system: K562
SK-MEL-2 = system: SK-MEL-2
SN12C = system: SN12C
SK-MEL-28 = system: SK-MEL-28
HCT-15 = system: HCT-15
SF-268 = system: SF-268
M14 = system: M14
MCF7 = system: MCF7
U-251 = system: U-251
SF-295 = system: SF-295
IGROV-1 = system: IGROV-1
EKVX = system: EKVX
HOP-92 = system: HOP-92

SMILES | GI50 (HCT-116) | GI50 (SW-620) | GI50 (TK-10) | GI50 (MDA-MB-435) | GI50 (OVCAR-8) | GI50 (SNB-19) | GI50 (DU-145) | GI50 (K562) | GI50 (SK-MEL-2) | GI50 (SN12C) | GI50 (SK-MEL-28) | GI50 (HCT-15) | GI50 (SF-268) | GI50 (M14) | GI50 (MCF7) | GI50 (U-251) | GI50 (SF-295) | GI50 (IGROV-1) | GI50 (EKVX) | GI50 (HOP-92)
COc1cc(C2C3=C(COC3=O)Oc3cc4c(cc32)OCO4)cc(OC)c1O (stereo unspecified) | 0.0103 µM (active) | 0.0124 µM (active) | 0.589 µM (active) | < 0.01 µM (active) | < 0.0152 µM (active) | < 0.0123 µM (active) | 0.0157 µM (active) | < 0.01 µM (active) | 0.0101 µM (active) | 0.0364 µM (active) | < 0.01 µM (active) | 0.0126 µM | 0.226 µM (active) | < 0.0112 µM (active) | < 0.01 µM (active) | < 0.0134 µM (active) | < 0.01 µM (active) | < 0.0121 µM (active) | 0.0207 µM (active) | –
Cc1cc(S(=O)(=O)[N-]/C(=N/S(=O)(=O)c2cc(Cl)sc2Cl)[n+]2ccc(N(C)C)cc2)c(S)cc1Cl | 24.1 µM (inactive) | 49.9 µM (inactive) | 49.7 µM (inactive) | 62.1 µM (inactive) | 40.8 µM (inactive) | – | 39.4 µM (inactive) | 43.9 µM (inactive) | 50.4 µM (inactive) | – | 84.9 µM (inactive) | 42.7 µM | 40.1 µM (inactive) | 30.3 µM (inactive) | 84.7 µM (inactive) | 45.2 µM (inactive) | 47.9 µM (inactive) | > 100 µM (inactive) | > 100 µM (inactive) | –
O=C(O)c1cc(CC2Cc3cc4c(cc3C2=O)CCC4)cc2c1CCC2 (stereo unspecified) | 72.1 µM (inactive) | > 100 µM (inactive) | > 100 µM (inactive) | > 100 µM (inactive) | > 100 µM (inactive) | > 100 µM (inactive) | > 100 µM (inactive) | 40.9 µM (inactive) | > 100 µM (inactive) | > 100 µM (inactive) | > 100 µM (inactive) | 60.7 µM | > 100 µM (inactive) | > 100 µM (inactive) | > 100 µM (inactive) | 82.2 µM (inactive) | > 100 µM (inactive) | > 100 µM (inactive) | > 100 µM (inactive) | –
S=C1NC2=C(COc3ccccc32)C(c2ccc(Cl)cc2)N1 (stereo unspecified) | 15.5 µM (inactive) | 28.6 µM (inactive) | – | 24 µM (inactive) | 21.6 µM (inactive) | 22.9 µM (inactive) | 19.9 µM (inactive) | 15.6 µM (inactive) | 15.3 µM (inactive) | 2.54 µM (inactive) | 21.9 µM (inactive) | – | 17.6 µM (inactive) | 18.7 µM (inactive) | 19.1 µM (inactive) | > 10 µM (inactive) | 13.8 µM (inactive) | 16.6 µM (inactive) | 17.1 µM (inactive) | > 10 µM (inactive)
N#CC1C(=O)SC2c3ccccc3C(=O)c3ccccc3C12 (stereo unspecified) | > 10 µM (inactive) | > 10 µM (inactive) | > 10 µM (inactive) | > 10 µM (inactive) | > 10 µM (inactive) | > 10 µM (inactive) | > 10 µM (inactive) | > 10 µM (inactive) | > 10 µM (inactive) | > 10 µM (inactive) | > 10 µM (inactive) | > 10 µM | > 10 µM (inactive) | > 10 µM (inactive) | > 10 µM (inactive) | > 10 µM (inactive) | > 10 µM (inactive) | > 10 µM (inactive) | > 10 µM (inactive) | –
COc1cc(C2c3cc4c(cc3C(=O)C3CCC(=O)N32)OCO4)cc(OC)c1O (stereo unspecified) | > 50 µM (inactive) | > 50 µM (inactive) | – | > 50 µM (inactive) | > 50 µM (inactive) | > 50 µM (inactive) | > 50 µM (inactive) | > 50 µM (inactive) | > 50 µM (inactive) | > 50 µM (inactive) | > 50 µM (inactive) | > 50 µM | – | > 50 µM (inactive) | > 50 µM (inactive) | > 50 µM (inactive) | > 50 µM (inactive) | > 50 µM (inactive) | > 50 µM (inactive) | > 50 µM (inactive)
O=C(O)/C=C/c1ccc(Oc2ccccc2C(=O)O)o1 | > 10 µM (inactive) | > 10 µM (inactive) | > 10 µM (inactive) | > 10 µM (inactive) | > 10 µM (inactive) | > 10 µM (inactive) | > 10 µM (inactive) | > 10 µM (inactive) | – | > 10 µM (inactive) | > 10 µM (inactive) | > 10 µM | > 10 µM (inactive) | > 10 µM (inactive) | > 10 µM (inactive) | > 10 µM (inactive) | > 10 µM (inactive) | > 10 µM (inactive) | – | > 10 µM (inactive)
Cc1ccc(N/N=C/C2=CC(C)(C)C(C#N)(C#N)C(O)=C2C#N)cc1 | 35.4 µM (inactive) | 24.8 µM (inactive) | 99.5 µM (inactive) | 62.5 µM (inactive) | 38.4 µM (inactive) | 86.5 µM (inactive) | 66.7 µM (inactive) | 21.3 µM (inactive) | – | > 100 µM (inactive) | 85.5 µM (inactive) | – | 49 µM (inactive) | 49.4 µM (inactive) | > 100 µM (inactive) | – | 69.3 µM (inactive) | 21 µM (inactive) | 61.1 µM (inactive) | 5.89 µM (inactive)
c1ccc(Nc2nnc(CCCCCCCCc3nnc(Nc4ccccc4)o3)o2)cc1 | > 100 µM (inactive) | > 100 µM (inactive) | > 100 µM (inactive) | > 100 µM (inactive) | > 100 µM (inactive) | > 100 µM (inactive) | > 100 µM (inactive) | > 100 µM (inactive) | > 100 µM (inactive) | > 100 µM (inactive) | > 100 µM (inactive) | > 100 µM | > 100 µM (inactive) | > 100 µM (inactive) | > 100 µM (inactive) | > 100 µM (inactive) | > 100 µM (inactive) | 60.3 µM (inactive) | > 100 µM (inactive) | –
CC(C)=CCNc1ncnc2c1ncn2CCC(=O)O | > 100 µM (inactive) | > 100 µM (inactive) | > 100 µM (inactive) | > 100 µM (inactive) | > 100 µM (inactive) | > 100 µM (inactive) | > 100 µM (inactive) | > 100 µM (inactive) | – | > 100 µM (inactive) | > 100 µM (inactive) | > 100 µM | > 100 µM (inactive) | > 100 µM (inactive) | > 100 µM (inactive) | > 100 µM (inactive) | > 100 µM (inactive) | > 100 µM (inactive) | – | > 100 µM (inactive)
O=C1CSc2nnc(CCCCCCCCc3nnc4n3NC(=O)CS4)n2N1 | 91.2 µM (inactive) | 73.6 µM (inactive) | – | > 100 µM (inactive) | 27.4 µM (inactive) | 32.1 µM (inactive) | > 100 µM (inactive) | 37.8 µM (inactive) | > 100 µM (inactive) | > 100 µM (inactive) | > 100 µM (inactive) | 37.2 µM | 43.3 µM (inactive) | > 100 µM (inactive) | 45.6 µM (inactive) | 35.4 µM (inactive) | 85.1 µM (inactive) | 42.6 µM (inactive) | > 100 µM (inactive) | 82 µM (inactive)
CC(C)C(=O)/C=C/S/C=C/C(=O)C(C)C | 1.69 µM (inactive) | 3.33 µM (inactive) | > 100 µM (inactive) | 10.4 µM (inactive) | 2.7 µM (inactive) | 28.3 µM (inactive) | 13.4 µM (inactive) | – | 23.4 µM (inactive) | 14.2 µM (inactive) | 4.28 µM (inactive) | 3.2 µM | 26.2 µM (inactive) | 3.92 µM (inactive) | 23 µM (inactive) | 18.6 µM (inactive) | 34.9 µM (inactive) | 19.5 µM (inactive) | 5 µM (inactive) | –
O=C(O)C[n+]1cn(NC(=O)Cc2ccccc2)cn1 | > 10 µM (inactive) | > 10 µM (inactive) | > 10 µM (inactive) | > 10 µM (inactive) | > 10 µM (inactive) | > 10 µM (inactive) | > 10 µM (inactive) | > 10 µM (inactive) | – | > 10 µM (inactive) | > 10 µM (inactive) | > 10 µM | > 10 µM (inactive) | > 10 µM (inactive) | > 10 µM (inactive) | > 10 µM (inactive) | > 10 µM (inactive) | > 10 µM (inactive) | 7.16 µM (inactive) | > 10 µM (inactive)
CCCCOC(=O)C(O)Cc1ccoc1 (stereo unspecified) | > 100 µM (inactive) | > 100 µM (inactive) | > 100 µM (inactive) | > 100 µM (inactive) | > 100 µM (inactive) | > 100 µM (inactive) | > 100 µM (inactive) | > 100 µM (inactive) | > 100 µM (inactive) | > 100 µM (inactive) | > 100 µM (inactive) | > 100 µM | > 100 µM (inactive) | > 100 µM (inactive) | > 100 µM (inactive) | > 100 µM (inactive) | > 100 µM (inactive) | > 100 µM (inactive) | > 100 µM (inactive) | –
CC(C)C(NC(=O)OCC1c2ccccc2-c2ccccc21)C(=O)NC(CCC(=O)OC(C)(C)C)C(=O)OC(C)(C)C (stereo unspecified) (Fmoc-Val-Glu(OtBu)-OtBu; configuration not given here) | 4.42 µM (inactive) | > 71.4 µM (inactive) | > 100 µM (inactive) | > 100 µM (inactive) | 23.9 µM (inactive) | > 100 µM (inactive) | > 100 µM (inactive) | > 20.5 µM (inactive) | – | > 31.6 µM (inactive) | > 100 µM (inactive) | > 100 µM | > 87.3 µM (inactive) | > 100 µM (inactive) | > 76.4 µM (inactive) | 7.59 µM (inactive) | 17.2 µM (inactive) | > 100 µM (inactive) | > 100 µM (inactive) | > 42 µM (inactive)
